Assay results: US9623077B2, “Use of peptide for alleviating pain” (Academia Sinica, priority 2015, dated 2017)
Where no end group is shown, it is not given here.

What was measured:
[1] = test system: CCI rats; type: in vivo, rat; settings: i.t. administration, from peak effects of % MPE
Description: Implantation of i.t. catheters in rats was performed.
Thermal hyperalgesia was examined using an IITC analgesiometer (IITC Inc., Woodland Hills, Calif., USA). […] Paw withdrawal latency (PWL) in seconds was measured with a cutoff time of 30 seconds. PWL was recorded at 30, 60, 90, 120, 150, and 180 minutes after PCD-1 or gabapentin injection. PWL (s) was transformed to a percentage of the maximum possible effect (% MPE) using the following formula: % MPE=(post-drug latency−baseline)/(cutoff−baseline)×100%, where the post-drug latency was the response measured at 0, 30, 60, 90, 120, 150, or 180 minutes after injection of PCD-1, gabapentin, or vehicle. The baseline was the response measured immediately prior to i.t. injection, and the cutoff time was 30 seconds.

[2] = test system: RAW264.7 cells; set-up: dose or concentration left out as unconfirmed; settings: PCD-1 for 24 h
Description: (A) RAW264.7 cells are treated with the indicated doses of PCD-1 for 24 h, and cell viability is then measured by Alamar blue assay to assess cytotoxicity.
In order to investigate regulation of iNOS and COX-2 by PCD-1, mouse macrophage and immune cells were treated with non-cytotoxic doses of PCD-1, and the effects on protein expression were examined.

[3] = test system: CCI rats
Description: The rat model of chronic constriction injury (CCI) was performed by following the previous reports or research. Implantation of i.t. catheters in rats was performed. The i.t. catheters (PE5 tubes: 9-cm long, 0.008-inch inner diameter, 0.014-inch outer diameter; Spectranetics, Colorado Springs, Colo., USA) were inserted via the atlanto-occipital membrane into the i.t. space at the level of the lumbar enlargement of the spinal cord, and externalized and fixed to the cranial aspect of the head. Five days after i.t. catheterization, CCI or mononeuropathy was induced by following a previous report. The 5-mm-long nerve segment of right sciatic nerve at the mid-thigh level was isolated from the surrounding tissues. Four ligatures (4-0 chromic gut) were loosely tied around the sciatic nerve with 1-mm intervals, and the wound was closed with sutures.
The narrow beam used in the present invention was a wooden beam 80 cm in length and 2.5 cm in width, suspended 100 cm from the ground by wooden supports at either end. Foam padding (1 m wide and approximately 12 cm thick) was placed beneath the beam to prevent injury to the rat in case of a fall. The cutoff time to cross the beam was 15 seconds for each rat. Rats were pre-trained before the test.

[4] = test system: rats; settings: rats treated with PCD-1

Molecule | median effective dose (ED50) for anti-thermal hyperalgesia [1] [µg] | Proliferation of RAW264.7 cells (cell viability, Alamar blue) [2] | latency to initiate crossing and total time to cross the beam ([3]; CCI rats+PCD-1 (20 μg) vs CCI rats+vehicle, 0 to 480 minutes) | locomotor function ([3]; rats, i.t. 20 μg) | alterations of external behavior [4]
NCC1(CC(=O)O)CCCCC1 [gabapentin, reference compound] | 2.3 ± 1.5 |  |  |  | 
FFHHIFRGIVHVGKTIHRLVTG [PCD-1, Piscidin-1] [listing 1 of 2 here] | 9.5 ± 3.2 |  |  |  | 
FFHHIFRGIVHVGKTIHRLVTG [PCD-1, Piscidin-1] [listing 2 of 2 here] |  | unaffected | No significant differences | did not affect | nor did it result in any obvious alterations
